In paper PMC10289903 (Investigational New Drugs, 2023):
Like-named read-outs stand apart in the source and are kept apart here.

System: patients with locally advanced or metastatic solid tumors
Excerpt: This was a Phase Ib, multicenter, open-label, dose-finding clinical trial (NCT02610075). […] Three types of treatment schedules were investigated: cohorts bid 1, bid 2, qd 1.1, qd 2.1 and qd 3.1 received bid or qd treatment on a 5/9 schedule (5 days on treatment, followed by 9 days off) on a 14-day cycle. Cohorts qd 1.2, qd 2.2, and qd 3.2 received treatment on a 5/2 schedule (5 days on followed by 2 days off for 2 of 3 weeks) in a 21-day cycle. Cohorts qd 2.3 and qd 3.3 received treatment on a weekly 5/2 schedule in a 21-day cycle (Table 1). The highest dose level(s) at which less than one-third of evaluable patients (none of 3 patients or 1 of 6 patients) experienced a dose-limiting toxicity (DLT) was declared the MTD.
The per protocol analysis set was defined as a subset of the full analysis set, excluding subjects having an important protocol deviation, to be used for analyses of efficacy endpoints if appropriate.

[1] = qd 2.3: 250 mg qd 5/2 weekly (n=10)

C=CCn1c(=O)c2cnc(Nc3ccc(N4CCN(C)CC4)cc3)nc2n1-c1cccc(C(C)(C)O)n1 [adavosertib, Adavosertib]
4 (40.0) n (%): Any treatment-related grade ≥ 3 AE [1]
3 (30.0) n (%): Decreased appetite (treatment-emergent AE) [1] | Fatigue (treatment-emergent AE) [1] | Hypokalemia (treatment-emergent AE) [1] | Insomnia (treatment-emergent AE) [1] | Nausea (treatment-emergent AE) [1] | Thrombocytopenia (treatment-emergent AE) [1] | Thrombocytopenia (treatment-related AE) [1]
1 (33.3) n (%): Alanine aminotransferase increased (treatment-emergent AE) (qd 2.2: 250 mg qd 5/2 (n=3)) | Anemia (treatment-emergent AE) (qd 2.2: 250 mg qd 5/2 (n=3)) | Anemia (treatment-related AE) (qd 2.2: 250 mg qd 5/2 (n=3)) | Asthenia (treatment-emergent AE) (qd 2.2: 250 mg qd 5/2 (n=3)) | Asthenia (treatment-related AE) (qd 2.2: 250 mg qd 5/2 (n=3)) | Back pain (treatment-emergent AE) (qd 2.2: 250 mg qd 5/2 (n=3)) | Constipation (treatment-emergent AE) (qd 2.2: 250 mg qd 5/2 (n=3)) | Constipation (treatment-related AE) (qd 2.2: 250 mg qd 5/2 (n=3)) | Cough (treatment-emergent AE) (qd 2.2: 250 mg qd 5/2 (n=3)) | Decreased appetite (treatment-emergent AE) (qd 2.2: 250 mg qd 5/2 (n=3)) | Dehydration (treatment-related AE) (qd 2.2: 250 mg qd 5/2 (n=3)) | Fall (treatment-emergent AE) (qd 2.2: 250 mg qd 5/2 (n=3)) | Hypokalemia (treatment-emergent AE) (qd 2.2: 250 mg qd 5/2 (n=3)) | Muscle spasms (treatment-emergent AE) (qd 2.2: 250 mg qd 5/2 (n=3)) | Pneumonia (treatment-emergent AE) (qd 2.2: 250 mg qd 5/2 (n=3)) | Rash (treatment-emergent AE) (qd 2.2: 250 mg qd 5/2 (n=3)) | Thrombocytopenia (treatment-emergent AE) (qd 2.2: 250 mg qd 5/2 (n=3)) | Thrombocytopenia (treatment-related AE) (qd 2.2: 250 mg qd 5/2 (n=3)) | Urinary tract infection (treatment-emergent AE) (qd 2.2: 250 mg qd 5/2 (n=3))
5 (50.0) n (%): Any grade ≥ 3 AE [1] | Dehydration (treatment-emergent AE) [1]
1 (25.0) n (%): Abdominal pain (treatment-emergent AE) (qd 3.1: 300 mg qd 5/9 (n=4)) | Abdominal pain (treatment-related AE) (qd 3.1: 300 mg qd 5/9 (n=4)) | Anemia (treatment-emergent AE) (qd 3.1: 300 mg qd 5/9 (n=4)) | Any treatment-related grade ≥ 3 AE (qd 3.1: 300 mg qd 5/9 (n=4)) | Back pain (treatment-emergent AE) (qd 3.1: 300 mg qd 5/9 (n=4)) | Constipation (treatment-emergent AE) (qd 3.1: 300 mg qd 5/9 (n=4)) | Cough (treatment-emergent AE) (qd 3.1: 300 mg qd 5/9 (n=4))
3 (100.0) n (%): Any grade ≥ 3 AE (qd 2.2: 250 mg qd 5/2 (n=3)) | Any treatment-related grade ≥ 3 AE (qd 2.2: 250 mg qd 5/2 (n=3))
1 (10.0) n (%): Alanine aminotransferase increased (treatment-emergent AE) [1] | Anemia (treatment-related AE) [1] | Muscle spasms (treatment-emergent AE) [1] | Neutropenia (treatment-emergent AE) [1] | Neutropenia (treatment-related AE) [1] | Pneumonia (treatment-emergent AE) [1] | Urinary tract infection (treatment-emergent AE) [1] | Vomiting (treatment-related AE) [1]
2 (66.7) n (%): Dehydration (treatment-emergent AE) (qd 2.2: 250 mg qd 5/2 (n=3)) | Diarrhea (treatment-emergent AE) (qd 2.2: 250 mg qd 5/2 (n=3)) | Diarrhea (treatment-related AE) (qd 2.2: 250 mg qd 5/2 (n=3)) | Fatigue (treatment-emergent AE) (qd 2.2: 250 mg qd 5/2 (n=3)) | Fatigue (treatment-related AE) (qd 2.2: 250 mg qd 5/2 (n=3)) | Nausea (treatment-emergent AE) (qd 2.2: 250 mg qd 5/2 (n=3)) | Nausea (treatment-related AE) (qd 2.2: 250 mg qd 5/2 (n=3)) | Pyrexia (treatment-emergent AE) (qd 2.2: 250 mg qd 5/2 (n=3)) | Vomiting (treatment-emergent AE) (qd 2.2: 250 mg qd 5/2 (n=3)) | Vomiting (treatment-related AE) (qd 2.2: 250 mg qd 5/2 (n=3))
2 (20.0) n (%): Abdominal pain (treatment-emergent AE) [1] | Anemia (treatment-emergent AE) [1] | Back pain (treatment-emergent AE) [1] | Constipation (treatment-emergent AE) [1] | Constipation (treatment-related AE) [1] | Decreased appetite (treatment-related AE) [1] | Dehydration (treatment-related AE) [1] | Dizziness (treatment-emergent AE) [1] | Edema peripheral (treatment-emergent AE) [1] | Fall (treatment-emergent AE) [1] | Fatigue (treatment-related AE) [1] | Myalgia (treatment-emergent AE) [1] | Myalgia (treatment-related AE) [1] | Nausea (treatment-related AE) [1] | Rash (treatment-emergent AE) [1] | Vomiting (treatment-emergent AE) [1]
3 (75.0) n (%): Any grade ≥ 3 AE (qd 3.1: 300 mg qd 5/9 (n=4))
0 n (%): Thrombocytopenia (treatment-related AE) (qd 2.1: 250 mg qd 5/9 (n=4)) | Urinary tract infection (treatment-emergent AE) (qd 2.1: 250 mg qd 5/9 (n=4)) | Vomiting (treatment-emergent AE) (qd 2.1: 250 mg qd 5/9 (n=4)) | Vomiting (treatment-related AE) (qd 2.1: 250 mg qd 5/9 (n=4)) | Abdominal pain (treatment-emergent AE) (qd 2.2: 250 mg qd 5/2 (n=3)) | Abdominal pain (treatment-related AE) (qd 2.2: 250 mg qd 5/2 (n=3)) | Decreased appetite (treatment-related AE) (qd 2.2: 250 mg qd 5/2 (n=3)) | Dizziness (treatment-emergent AE) (qd 2.2: 250 mg qd 5/2 (n=3)) | Dyspepsia (treatment-emergent AE) (qd 2.2: 250 mg qd 5/2 (n=3)) | Dyspepsia (treatment-related AE) (qd 2.2: 250 mg qd 5/2 (n=3)) | Dyspnea (treatment-emergent AE) (qd 2.2: 250 mg qd 5/2 (n=3)) | Edema peripheral (treatment-emergent AE) (qd 2.2: 250 mg qd 5/2 (n=3)) | Headache (treatment-emergent AE) (qd 2.2: 250 mg qd 5/2 (n=3)) | Insomnia (treatment-emergent AE) (qd 2.2: 250 mg qd 5/2 (n=3)) | Myalgia (treatment-emergent AE) (qd 2.2: 250 mg qd 5/2 (n=3)) | Myalgia (treatment-related AE) (qd 2.2: 250 mg qd 5/2 (n=3)) | Neutropenia (treatment-emergent AE) (qd 2.2: 250 mg qd 5/2 (n=3)) | Neutropenia (treatment-related AE) (qd 2.2: 250 mg qd 5/2 (n=3)) | Abdominal pain (treatment-related AE) [1] | Asthenia (treatment-emergent AE) [1] | Asthenia (treatment-related AE) [1] | Cough (treatment-emergent AE) [1] | Dyspepsia (treatment-emergent AE) [1] | Dyspepsia (treatment-related AE) [1] | Dyspnea (treatment-emergent AE) [1] | Headache (treatment-emergent AE) [1] | Pyrexia (treatment-emergent AE) [1] | Alanine aminotransferase increased (treatment-emergent AE) (qd 3.1: 300 mg qd 5/9 (n=4)) | Anemia (treatment-related AE) (qd 3.1: 300 mg qd 5/9 (n=4)) | Asthenia (treatment-emergent AE) (qd 3.1: 300 mg qd 5/9 (n=4)) | Asthenia (treatment-related AE) (qd 3.1: 300 mg qd 5/9 (n=4)) | Constipation (treatment-related AE) (qd 3.1: 300 mg qd 5/9 (n=4)) | Decreased appetite (treatment-emergent AE) (qd 3.1: 300 mg qd 5/9 (n=4)) | Decreased appetite (treatment-related AE) (qd 3.1: 300 mg qd 5/9 (n=4))
8 (80.0) n (%): Any AE (treatment-emergent) [1] | Any treatment-related AE [1]
2 (50.0) n (%): Any treatment-related AE (qd 3.1: 300 mg qd 5/9 (n=4))
7 (70.0) n (%): Diarrhea (treatment-emergent AE) [1] | Diarrhea (treatment-related AE) [1]
4 (100) n (%): Any AE (treatment-emergent) (qd 3.1: 300 mg qd 5/9 (n=4))
3 (100) n (%): Any AE (treatment-emergent) (qd 2.2: 250 mg qd 5/2 (n=3)) | Any treatment-related AE (qd 2.2: 250 mg qd 5/2 (n=3))
